Patent US20090030024A1, “THIAZOLES AS FUNGICIDES” (priority 2005, published 2009)
Where two headings read alike, the source gives them in different places.

Tests used:
[1] = system: Phytophthora infestans; assay: whole plant or invertebrate; format: in vivo; conditions: in Solanum lycopersicum, 168 h, read-out: efficacy
[2] = logP determination by retention times (calibration with alkan-2-ones)
[3] = system: Fusarium graminearum; assay: whole plant or invertebrate; format: in vivo; conditions: in Hordeum vulgare, 96 h, read-out: efficacy
[4] = logP, * HPLC reversed-phase C18, 40° C., mobile phase 0.1% aqueous formic acid and acetonitrile, linear gradient 10% to 95% acetonitrile
[5] = * HPLC reversed-phase C18, 40° C., mobile phase 0.1% aqueous formic acid and acetonitrile, linear gradient 10% to 95% acetonitrile
[6] = logP, values marked *: HPLC on reversed-phase C 18, 40° C., mobile phase 0.1% aqueous formic acid and acetonitrile, linear gradient 10% to 95% acetonitrile

Cc1nc(C(C)C)sc1-c1ccnc(Nc2ccc(O)cc2)n1 [Example 329, 4-{[4-(2-isopropyl-4-methyl-1,3-thiazol-5-yl)pyrimidin-2-yl]amino}phenol]
pest or weed control at 500 ppm [1]: ≥ 70% | chromatographic logP [2]: 2.18

CCc1nc(C)c(-c2ccnc(Nc3ccc(O)cc3)n2)s1 [Example 327, 4-{[4-(2-ethyl-4-methyl-1,3-thiazol-5-yl)pyrimidin-2-yl]amino}phenol]
pest or weed control at 500 ppm [1]: ≥ 70% | chromatographic logP [2]: 1.88

COc1ccc(Nc2nccc(-c3sc(N)nc3C)n2)cc1Cl [Example 203, 4-(2-amino-4-methyl-1,3-thiazol-5-yl)-N-(3-chloro-4-methoxyphenyl)pyrimidine-2-amine]
pest or weed control at 500 ppm [1]: ≥ 70% | chromatographic logP [2]: 1.63

COCCOC(=O)Nc1ccc(Nc2nccc(-c3sc(N)nc3C)n2)cc1 [Example 69, 2-methoxyethyl-(4-{[4-(2-amino-4-methyl-1,3-thiazol-5-yl)pyrimidin-2-yl]amino}phenyl)carbamate]
pest or weed control at 500 ppm [1]: ≥ 70% | chromatographic logP [2]: 1.4

Cc1nc(C2CC2)sc1-c1ccnc(Nc2ccc(CNC(=O)OC(C)(C)C)cc2)n1 [Example 630, tert-butyl-(4-{[4-(2-cyclopropyl-4-methyl-1,3-thiazol-5-yl)pyrimidin-2-yl]amino}benzyl)carbamate]
pest or weed control at 500 ppm [1]: ≥ 70% | chromatographic logP [2, 4]: 3.46

COc1cc(Nc2nccc(-c3sc(C4CC4)nc3C)n2)cc(OC)c1OC [Example 222, 4-(2-cyclopropyl-4-methyl-1,3-thiazol-5-yl)-N-(3,4,5-trimethoxyphenyl)pyrimidine-2-amine]
pest or weed control at 1000 ppm [3]: ≥ 70% | chromatographic logP [2]: 2.77

Cc1nc(N)sc1-c1ccnc(Nc2ccccc2)n1 [Example 210, 4-(2-amino-4-methyl-1,3-thiazol-5-yl)-N-phenylpyrimidine-2-amine]
pest or weed control at 500 ppm [1]: ≥ 70% | chromatographic logP [2]: 1.51

CCc1nc(C)c(-c2ccnc(Nc3ccc(NC(C)=O)cc3)n2)s1 [Example 460, N-(4-{[4-(2-ethyl-4-methyl-1,3-thiazol-5-yl)pyrimidin-2-yl]amino}phenyl)acetamide]
pest or weed control at 500 ppm [1]: ≥ 70% | chromatographic logP [2, 4]: 1.88

Cc1nc(N)sc1-c1ccnc(Nc2ccc(CNC(=O)OC(C)(C)C)cc2)n1 [Example 628, tert-butyl-(4-{[4-(2-amino-4-methyl-1,3-thiazol-5-yl)pyrimidin-2-yl]amino}benzyl)carbamate]
pest or weed control at 500 ppm [1]: ≥ 70% | chromatographic logP [2, 4]: 1.86

CCc1nc(C)c(-c2ccnc(Nc3ccc(F)cc3)n2)s1 [Example 239, 4-(2-ethyl-4-methyl-1,3-thiazol-5-yl)-N-(4-fluorophenyl)pyrimidine-2-amine]
pest or weed control at 500 ppm [1]: ≥ 70% | chromatographic logP [2]: 3.1

Cc1nc(C)c(-c2ccnc(Nc3ccc(O)cc3)n2)s1 [Example 321, 4-{[4-(2,4-dimethyl-1,3-thiazol-5-yl)pyrimidin-2-yl]amino}phenol]
pest or weed control at 500 ppm [1]: ≥ 70% | chromatographic logP [2]: 1.62

CCOC(=O)c1cccc(Nc2nccc(-c3sc(C(C)C)nc3C)n2)c1 [Example 375, ethyl-3-{[4-(2-isopropyl-4-methyl-1,3-thiazol-5-yl)pyrimidin-2-yl]amino}benzoate]
pest or weed control at 1000 ppm [3]: ≥ 70% | chromatographic logP [2]: 3.83

CCc1nc(C)c(-c2ccnc(Nc3cccc(C(C)=O)c3)n2)s1 [Example 9, 1-(3-{[4-(2-ethyl-4-methyl-1,3-thiazol-5-yl)pyrimidin-2-yl]amino}phenyl)ethanone]
pest or weed control at 1000 ppm [3]: ≥ 70% | chromatographic logP [2]: 2.7

Cc1nc(C2CC2)sc1-c1ccnc(Nc2ccc(O)cc2)n1 [Example 324, 4-{[4-(2-cyclopropyl-4-methyl-1,3-thiazol-5-yl)pyrimidin-2-yl]amino}phenol]
pest or weed control at 500 ppm [1]: ≥ 70% | chromatographic logP [2]: 2.01

Cc1nc(C)c(-c2ccnc(Nc3ccc(F)cc3)n2)s1 [Example 186, 4-(2,4-dimethyl-1,3-thiazol-5-yl)-N-(4-fluorophenyl)pyrimidine-2-amine]
pest or weed control at 500 ppm [1]: ≥ 70% | chromatographic logP [2]: 2.65

COc1ccc(Nc2nccc(-c3sc(N(C)C)nc3C)n2)cn1 [Example 785, 4-[2-(dimethylamine)-4-methyl-1,3-thiazol-5-yl]-N-(6-methoxypyridin-3-yl)pyrimidine-2-amine]
logP [2, 5]: 1.55*

COc1cc(Nc2nccc(-c3sc(N)nc3C)n2)cc(OC)c1OC [Example 201, 4-(2-amino-4-methyl-1,3-thiazol-5-yl)-N-(3,4,5-trimethoxyphenyl)pyrimidine-2-amine]
pest or weed control at 500 ppm [1]: ≥ 70% | chromatographic logP [2]: 1.51

Cc1nc(C(C)C)sc1-c1ccnc(Nc2ccc3c(c2)OCCO3)n1 [Example 389, N-(2,3-dihydro-1,4-benzodioxin-6-yl)-4-(2-isopropyl-4-methyl-1,3-thiazol-5-yl)pyrimidine-2-amine]
chromatographic logP [2]: 3.16

Cc1nc(C)c(-c2ccnc(Nc3ccc(N(C)C)c(Cl)c3)n2)s1 [Example 674, 2-chloro-N4-[4-(2,4-dimethyl-1,3-thiazol-5-yl)pyrimidin-2-yl]-N1,N1-dimethylbenzene-1,4-diamine]
chromatographic logP [2, 4]: 2

Cc1nc2c(s1)-c1nc(Nc3cccc([N+](=O)[O-])c3)ncc1CC2 [Example 95, 2-Methyl-N-(3-nitrophenyl)-4,5-dihydro[1,3]thiazolo[4,5-h]quinazoline-8-amine]
chromatographic logP [2]: 2.79 | chromatographic logP ([2]; logP(HCOOH), HCOOH): 2.79

COCCCOC(=O)c1ccc(Nc2nccc(-c3sc(COC)nc3C)n2)cc1 [Example 765, 3-methoxypropyl-4-({4-[2-(methoxymethyl)-4-methyl-1,3-thiazol-5-yl]pyrimidin-2-yl}amino)benzoate]
chromatographic logP [2, 4]: 2.63

COCCOc1nc(C)c(-c2ccnc(Nc3ccc(OC)nc3)n2)s1 [Example 915, 4-[2-(2-methoxyethoxy)-4-methyl-1,3-thiazol-5-yl]-N-(6-methoxypyridin-3-yl)pyrimidine-2-amine]
chromatographic logP [2, 6]: 2.34

COCC(C)Nc1nc(C)c(-c2ccnc(Nc3ccc(NC(C)=O)cc3)n2)s1 (stereo not drawn) [Example 578, N-{4-[(4-{2-[(2-methoxy-1-methylethyl)amino]-4-methyl-1,3-thiazol-5-yl}pyrimidin-2-yl)amino]phenyl}acetamide]
chromatographic logP [2, 4]: 1.43

COCC(C)Nc1nc(C)c(-c2ccnc(Nc3cccc([N+](=O)[O-])c3)n2)s1 (stereo not drawn) [Example 334, 4-{2-[(2-methoxy-1-methylethyl)amino]-4-methyl-1,3-thiazol-5-yl}-N-(3-nitrophenyl)pyrimidine-2-amine]
chromatographic logP [2]: 2.2

COc1cccc(Nc2nccc(-c3sc(C4CC4)nc3C)n2)c1 [Example 224, 4-(2-cyclopropyl-4-methyl-1,3-thiazol-5-yl)-N-(3-methoxyphenyl)pyrimidine-2-amine]
chromatographic logP [2]: 3.28

Cc1nc(C(C)C)sc1-c1ccnc(Nc2ccc3c(c2)OCO3)n1 [Example 619, N-1,3-benzodioxol-5-yl-4-(2-isopropyl-4-methyl-1,3-thiazol-5-yl)pyrimidine-2-amine]
chromatographic logP [2, 4]: 3.25

CNc1nc(C)c(-c2ccnc(Nc3ccc(O)cc3)n2)s1 [Example 746, 4-({4-[4-methyl-2-(methylamine)-1,3-thiazol-5-yl]pyrimidin-2-yl}amino)phenol]
logP [2, 5]: 1.11*

COCc1nc(C)c(-c2ccnc(Nc3ccc(C(F)(F)F)cc3)n2)s1 [Example 300, 4-[2-(methoxymethyl)-4-methyl-1,3-thiazol-5-yl]-N-[4-(trifluoromethyl)phenyl]pyrimidine-2-amine]
chromatographic logP [2]: 3.59

Cc1nc(NCCO)sc1-c1ccnc(Nc2ccc(F)cc2)n1 [Example 891, 2-[(5-{2-[(4-fluorophenyl)amino]pyrimidin-4-yl}-4-methyl-1,3-thiazol-2-yl)amino]ethanol]
chromatographic logP [2, 6]: 1.5

COCC(C)Nc1nc(C)c(-c2ccnc(Nc3ccc(N4CCCC4=O)cc3)n2)s1 (stereo not drawn) [Example 728, 1-{4-[(4-{2-[(2-methoxy-1-methylethyl)amino]-4-methyl-1,3-thiazol-5-yl}pyrimidin-2-yl)amino]phenyl}pyrrolidin-2-one]
chromatographic logP [2, 4]: 1.64

Cc1nc(N)sc1-c1ccnc(Nc2cccc([N+](=O)[O-])c2)n1 [Example 206, 4-(2-amino-4-methyl-1,3-thiazol-5-yl)-N-(3-nitrophenyl)pyrimidine-2-amine]
chromatographic logP [2]: 1.5

Cc1nc(C)c(-c2ccnc(Nc3ccc(N(C)C)cc3)n2)s1 [Example 552, N′-[4-(2,4-dimethyl-1,3-thiazol-5-yl)pyrimidin-2-yl]-N,N-dimethylbenzene-1,4-diamine]
chromatographic logP [2, 4]: 1.41

COc1ccc(Nc2nccc(-c3sc(C4CC4)nc3C)n2)cc1OC [Example 223, 4-(2-cyclopropyl-4-methyl-1,3-thiazol-5-yl)-N-(3,4-dimethoxyphenyl)pyrimidine-2-amine]
chromatographic logP [2]: 2.6

Cc1nc(C2CC2)sc1-c1ccnc(Nc2cccc(C(F)(F)F)c2)n1 [Example 229, 4-(2-cyclopropyl-4-methyl-1,3-thiazol-5-yl)-N-[3-(trifluoromethyl)phenyl]pyrimidine-2-amine]
chromatographic logP [2]: 4.04

COCCCNc1nc(C)c(-c2ccnc(Nc3cccc(C(C)=O)c3)n2)s1 [Example 738, 1-{3-[(4-{2-[(3-methoxypropyl)amino]-4-methyl-1,3-thiazol-5-yl}pyrimidin-2-yl)amino]phenyl}ethanone]
chromatographic logP [2, 4]: 1.75

COc1ccc(Nc2nccc(-c3sc(NCC4CCCO4)nc3C)n2)cn1 (stereo not drawn) [Example 523, N-(6-methoxypyridin-3-yl)-4-{4-methyl-2-[(tetrahydrofuran-2-ylmethyl)amino]-1,3-thiazol-5-yl}pyrimidine-2-amine]
chromatographic logP [2, 4]: 1.57

CC(=O)Nc1ccc(Nc2nccc(-c3sc(C)nc3C)n2)cc1 [Example 458, N-(4-{[4-(2,4-dimethyl-1,3-thiazol-5-yl)pyrimidin-2-yl]amino}phenyl)acetamide]
chromatographic logP [2, 4]: 1.62
